Source: patent publication US9138436B2, “Inhibitors of Bruton's tyrosine kinase” (PHARMACYCLICS LLC, priority 2011, dated 2015)

Molecular target: Btk (Homo sapiens, UniProt Q06187)
Assay: Btk in vitro inhibitory activity, acellular kinase assay (TR-FRET)
Format: biochemical
Procedure: Btk kinase activity is determined using a time-resolved fluorescence resonance energy transfer (TR-FRET) methodology. Measurements are performed in a reaction volume of 50 μL using 96-well assay plates. Kinase enzyme, inhibitor, ATP (at the Km for the kinase), and 1 μM peptide substrate (Biotin-AVLESEEELYSSARQ-NH2) are incubated in a reaction buffer composed of 20 mM Tris, 50 mM NaCl, MgCl2 (5-25 mM depending on the kinase), MnCl2 (0-10 mM), 1 mM DTT, 0.1 mM EDTA, 0.01% bovine serum albumin, 0.005% Tween-20, and 10% DMSO at pH 7.4 for one hour. The reaction is quenched by the addition of 1.2 equivalents of EDTA (relative to divalent cation) in 25 μL of 1× Lance buffer (Perkin-Elmer). Streptavidin-APC (Perkin-Elmer) and Eu-labeled p-Tyr100 antibody (Perkin-Elmer) in 1× Lance buffer are added in a 25 μL volume to give final concentrations of 100 nM and 2.5 nM, respectively, and the mixture is allowed to incubate for one hour. The TR-FRET signal is measured on a multimode plate reader with an excitation wavelength (λEx) of 330 nm and detection wavelengths (λEm) of 615 and 665 nm. Activity is determined by the ratio of the fluorescence at 665 nm to that at 615 nm. For each compound, enzyme activity is measured at various concentrations of compound. Negative control reactions are performed in the absence of inhibitor in replicates of six, and two no-enzyme controls were used to determine baseline fluorescence levels. Inhibition constants, Ki(app), are obtained using the program BatchKi (Kuzmic et al. (2000), Anal. Biochem. 286:45-50). IC50s are obtained according to the equation: IC50={Ki(app)/(1+[ATP]/Km^ATP)}+[E]total/2;
For all kinases, [ATP]=Km^ATP, [Btk]total=0.5 nM and [Lck]total=6 nM.

Chain of Btk (Q06187 whole entry): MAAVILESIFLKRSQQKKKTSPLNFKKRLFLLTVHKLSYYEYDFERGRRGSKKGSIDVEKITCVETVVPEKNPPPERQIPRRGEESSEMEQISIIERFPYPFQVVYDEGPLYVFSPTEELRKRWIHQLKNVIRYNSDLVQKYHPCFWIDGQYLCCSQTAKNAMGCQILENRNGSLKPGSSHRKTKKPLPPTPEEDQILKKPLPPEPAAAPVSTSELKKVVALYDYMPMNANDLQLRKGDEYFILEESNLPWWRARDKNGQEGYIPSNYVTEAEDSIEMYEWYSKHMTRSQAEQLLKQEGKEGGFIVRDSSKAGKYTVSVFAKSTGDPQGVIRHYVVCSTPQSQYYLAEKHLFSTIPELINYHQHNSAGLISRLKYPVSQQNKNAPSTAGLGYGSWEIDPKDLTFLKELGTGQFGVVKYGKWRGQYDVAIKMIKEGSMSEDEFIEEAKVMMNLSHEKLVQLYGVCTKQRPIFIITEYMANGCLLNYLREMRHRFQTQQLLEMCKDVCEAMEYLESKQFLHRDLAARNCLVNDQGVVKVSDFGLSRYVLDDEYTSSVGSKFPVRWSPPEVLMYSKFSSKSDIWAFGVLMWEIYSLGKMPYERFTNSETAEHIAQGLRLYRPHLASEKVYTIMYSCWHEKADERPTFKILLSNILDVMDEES

| IC50 [nM] | SMILES |
| --- | --- |
| < 100 | CN(C/C=C/C(=O)N1CC[C@@H](n2nc(-c3ccc(Oc4ccccc4)cc3)c3c(N)ncnc32)C1)C1CCOCC1 [Example 1k, (R,E)-1-(3-(4-amino-3-(4-phenoxyphenyl)-1H-pyrazolo[3,4-d]pyrimidin-1-yl)pyrrolidin-1-yl)-4-(methyl(tetrahydro-2H-pyran-4-yl)amino)but-2-en-1-one] |
| < 100 | CN(C/C=C/C(=O)N1CCC[C@@H](n2nc(-c3ccc(Oc4ccccc4)cc3)c3c(N)ncnc32)C1)C1CCCC1 [Example 2ai, (R,E)-1-(3-(4-amino-3-(4-phenoxyphenyl)-1H-pyrazolo[3,4-d]pyrimidin-1-yl)piperidin-1-yl)-4-(cyclopentyl(methyl)amino)but-2-en-1-one] |
| < 100 | CN(C/C=C/C(=O)N1CC[C@@H](n2nc(-c3ccc(Oc4ccccc4)cc3)c3c(N)ncnc32)C1)C1CCCC1 [Example 2y, (R,E)-1-(3-(4-amino-3-(4-phenoxyphenyl)-1H-pyrazolo[3,4-d]pyrimidin-1-yl)pyrrolidin-1-yl)-4-(cyclopentyl(methyl)amino)but-2-en-1-one] |
| < 100 | CC(C)N(C/C=C/C(=O)N1CCC[C@@H](n2nc(-c3ccc(Oc4ccccc4)cc3)c3c(N)ncnc32)C1)C1CC1 [Example 2t, (R,E)-1-(3-(4-amino-3-(4-phenoxyphenyl)-1H-pyrazolo[3,4-d]pyrimidin-1-yl)piperidin-1-yl)-4-(cyclopropyl(isopropyl)amino)but-2-en-1-one] |
| < 100 | Nc1ncnc2c1c(-c1ccc(Oc3ccccc3)cc1)nn2[C@@H]1CCCN(C(=O)/C=C/CNC2CCC2)C1 [Example 2am, (R,E)-1-(3-(4-amino-3-(4-phenoxyphenyl)-1H-pyrazolo[3,4-d]pyrimidin-1-yl)piperidin-1-yl)-4-(cyclobutylamino)but-2-en-1-one] |
| < 100 | CCN(C/C=C/C(=O)N1CCC[C@@H](n2nc(-c3ccc(Oc4ccccc4)cc3)c3c(N)ncnc32)C1)C1CC1 [Example 5a, (R,E)-1-(3-(4-amino-3-(4-phenoxyphenyl)-1H-pyrazolo[3,4-d]pyrimidin-1-yl)piperidin-1-yl)-4-(cyclopropyl(ethyl)amino)but-2-en-1-one] |
| < 100 | Nc1ncnc2c1c(-c1ccc(Oc3ccccc3)cc1)nn2[C@@H]1CCN(C(=O)/C=C/CNC2CCOCC2)C1 [Example 1d, (R,E)-1-(3-(4-amino-3-(4-phenoxyphenyl)-1H-pyrazolo[3,4-d]pyrimidin-1-yl)pyrrolidin-1-yl)-4-(tetrahydro-2H-pyran-4-ylamino)but-2-en-1-one] |
| < 100 | Nc1ncnc2c1c(-c1ccc(Oc3ccccc3)cc1)nn2[C@@H]1CCCN(C(=O)/C=C/CNC2CC2)C1 [Example 2af, (R,E)-1-(3-(4-amino-3-(4-phenoxyphenyl)-1H-pyrazolo[3,4-d]pyrimidin-1-yl)piperidin-1-yl)-4-(cyclopropylamino)but-2-en-1-one] |
| < 100 | Nc1ncnc2c1c(-c1ccc(Oc3ccccc3)cc1)nn2[C@@H]1CCCN(C(=O)/C=C/CNC2CCOCC2)C1 [Example 1f, (R,E)-1-(3-(4-amino-3-(4-phenoxyphenyl)-1H-pyrazolo[3,4-d]pyrimidin-1-yl)piperidin-1-yl)-4-(tetrahydro-2H-pyran-4-ylamino)but-2-en-1-one] |
| < 100 | Nc1ncnc2c1c(-c1ccc(Oc3ccccc3)cc1)nn2[C@@H]1CCN(C(=O)/C=C/CNC2CCCC2)C1 [Example 2z, (R,E)-1-(3-(4-amino-3-(4-phenoxyphenyl)-1H-pyrazolo[3,4-d]pyrimidin-1-yl)pyrrolidin-1-yl)-4-(cyclopentylamino)but-2-en-1-one] |
| < 100 | CN(C(=O)/C=C/CN(C)C1CC1)c1ccc(-n2nc(-c3ccc(Oc4ccccc4)cc3)c3c(N)ncnc32)cc1 [Example 7b, (E)-N-(4-(4-amino-3-(4-phenoxyphenyl)-1H-pyrazolo[3,4-d]pyrimidin-1-yl)phenyl)-4-(cyclopropyl(methyl)amino)-N-methylbut-2-enamide] |
| < 100 | CN(C/C=C/C(=O)N1CCC(n2nc(-c3ccc(Oc4ccccc4)cc3)c3c(N)ncnc32)CC1)C1CC1 [Example 5b, (E)-1-(4-(4-amino-3-(4-phenoxyphenyl)-1H-pyrazolo[3,4-d]pyrimidin-1-yl)piperidin-1-yl)-4-(cyclopropyl(methyl)amino)but-2-en-1-one] |
| < 100 | CCN(C/C=C/C(=O)N1CC[C@@H](n2nc(-c3ccc(Oc4ccccc4)cc3)c3c(N)ncnc32)C1)C1CC1 [Example 2v, (R,E)-1-(3-(4-amino-3-(4-phenoxyphenyl)-1H-pyrazolo[3,4-d]pyrimidin-1-yl)pyrrolidin-1-yl)-4-(cyclopropyl(ethyl)amino)but-2-en-1-one] |
| < 100 | Nc1ncnc2c1c(-c1ccc(Oc3ccccc3)cc1)nn2[C@@H]1CCCN(C(=O)/C=C/CN(C2CC2)C2CC2)C1 [Example 2r, (R,E)-1-(3-(4-amino-3-(4-phenoxyphenyl)-1H-pyrazolo[3,4-d]pyrimidin-1-yl)piperidin-1-yl)-4-(dicyclopropylamino)but-2-en-1-one] |
| < 100 | Nc1ncnc2c1c(-c1ccc(Oc3ccccc3)cc1)nn2[C@@H]1CCN(C(=O)/C=C/CN[C@H]2CCOC2)C1 [Example 2e, (E)-1-((R)-3-(4-amino-3-(4-phenoxyphenyl)-1H-pyrazolo[3,4-d]pyrimidin-1-yl)pyrrolidin-1-yl)-4-((S)-tetrahydrofuran-3-ylamino)but-2-en-1-one] |
| < 100 | Nc1ncnc2c1c(-c1ccc(Oc3ccccc3)cc1)nn2[C@@H]1CCN(C(=O)/C=C/CNC2COC2)C1 [Example 2g, (R,E)-1-(3-(4-amino-3-(4-phenoxyphenyl)-1H-pyrazolo[3,4-d]pyrimidin-1-yl)pyrrolidin-1-yl)-4-(oxetan-3-ylamino)but-2-en-1-one] |
| < 100 | Nc1ncnc2c1c(-c1ccc(Oc3ccccc3)cc1)nn2[C@@H]1CCN(C(=O)/C=C/CN(C2CC2)C2CC2)C1 [Example 2a, (R,E)-1-(3-(4-amino-3-(4-phenoxyphenyl)-1H-pyrazolo[3,4-d]pyrimidin-1-yl)pyrrolidin-1-yl)-4-(dicyclopropylamino)but-2-en-1-one] |
| < 100 | CN(C/C=C/C(=O)Nc1cccc(-n2nc(-c3ccc(Oc4ccccc4)cc3)c3c(N)ncnc32)c1)C1CC1 [Example 7f, (E)-N-(3-(4-amino-3-(4-phenoxyphenyl)-1H-pyrazolo[3,4-d]pyrimidin-1-yl)phenyl)-4-(cyclopropyl(methyl)amino)but-2-enamide] |
| < 100 | CN(C/C=C/C(=O)N1CCC[C@@H](n2nc(-c3ccc(Oc4ccccc4)cc3)c3c(N)ncnc32)C1)C1CCOCC1 [Example 1q, (R,E)-1-(3-(4-amino-3-(4-phenoxyphenyl)-1H-pyrazolo[3,4-d]pyrimidin-1-yl)piperidin-1-yl)-4-(methyl(tetrahydro-2H-pyran-4-yl)amino)but-2-en-1-one] |
| < 100 | Nc1ncnc2c1c(-c1ccc(Oc3ccccc3)cc1)nn2[C@@H]1CCCN(C(=O)/C=C/CN[C@H]2CCOC2)C1 [Example 2k, (E)-1-((R)-3-(4-amino-3-(4-phenoxyphenyl)-1H-pyrazolo[3,4-d]pyrimidin-1-yl)piperidin-1-yl)-4-((S)-tetrahydrofuran-3-ylamino)but-2-en-1-one] |
| < 100 | CN(C/C=C/C(=O)N1CC[C@@H](n2nc(-c3ccc(Oc4ccccc4)cc3)c3c(N)ncnc32)C1)C1COC1 [Example 2f, (R,E)-1-(3-(4-amino-3-(4-phenoxyphenyl)-1H-pyrazolo[3,4-d]pyrimidin-1-yl)pyrrolidin-1-yl)-4-(methyl(oxetan-3-yl)amino)but-2-en-1-one] |
